One experiment concerns the target RET-wild type (Homo sapiens (Human), UniProt P07949). The experiment can be described thus: Evaluation of RET kinase inhibiting activity (cell system), Ba/F3 cells overexpressing Myc tagged RET. The experiment is classed as cell-based. The settings on record: Ba/F3, compound 2 hours, read-out: RET-wild type IC50. Here is the method:
(§1) Thereafter, 1 mL of Cell Lysis Buffer (Cell signaling technology, #9803), a single tablet of Phosphatase inhibitor (Roche, #04906837001), and a single tablet of Protease inhibitor (Roche, #0469312400) were added to 9 mL of MilliQ, and 20 ul of the obtained mixture was then added to each well. The mixture thus obtained was placed on ice for 20 minutes, so that the cells were lysed. A 5-ul aliquot was taken from the cell lysate, and thereafter, 64 nl of Myc antibody (Cell signaling technology, #3946) and Streptavidin Donor beads in an equal amount of 102 nl of P-Tyr-100 Acceptor beads included in the Alpha Screen Phosphotyrosine (P-Tyr-100) assay kit (Perkin Elmer, #6760620C) were added to the aliquot in accordance with the instruction manual included with the aforementioned assay kit. The obtained mixture was reacted at room temperature overnight, and a RET kinase inhibiting activity rate was then measured using Envision.

Experiment [1] deals with RET recombinant protein (RET-wild type) (Homo sapiens (Human), UniProt P07949). The experiment in a line: Evaluation of RET kinase inhibiting activity (cell-free system), mobility shift assay. The experiment is classed as biochemical. Here is the method:
(§2) 19 uL of the RET kinase solution was added to each of lines A to P of a 384-well plate, and thereafter, the test compound at each concentration was added to lines C to N, and further, 1 uL of dimethyl sulfoxide (hereinafter referred to as DMSO) was added to each of lines A, B, O and P. Thereafter, the obtained mixtures were each preincubated at room temperature for 20 minutes. Furthermore, a substrate solution A containing ATP (final concentration: 1 mM) and a substrate solution B containing no ATP, both in addition to a reaction buffer and FL-Peptide 22 (PerkinElmer, #760366, final concentration: 1.5 uM) were produced. The substrate solution A was added in an amount of 5 uL to lines B to 0, whereas the substrate solution B was added in an amount of 5 uL to lines A and P. The obtained mixtures were each incubated at 28° C. for 45 minutes. A reaction termination solution (100 mM HEPES (pH 7.4), 0.015% Briji-35, 40 mM EDTA, and 0.1% Coating Reagent 3) was added in an amount of 40 ul to the reaction mixture, so as to terminate the reaction.
(§3) Using EZ Reader II (Perkin Elmer), a substrate peptide was separated from a phosphorylated peptide in the reaction solution, and the product ratio (P/(P+S)) calculated from the peak (S) of the substrate peptide and the peak (P) of the phosphorylated peptide was used for evaluation. The inhibition of the test compound having each concentration was obtained by the following formula (automatically calculated using the software of EZ Reader II System). Inhibition (%)=100×(1−Ci/Co) (a) Ci: Conversion rate of a reaction of a test compound with substrate solution A−conversion rate of a reaction of DMSO with substrate solution B Co: Conversion rate of a reaction of DMSO with substrate solution A−conversion rate of a reaction of DMSO with substrate solution B
(§4) Based on the inhibition rates of the test compound at 12 different concentrations according to the formula (a), a 4-parameter logistic regression curve was drawn. At this time, the 4-parameter logistic regression equation is expressed as follows. Inhibition (%)=Bottom+(Top−Bottom)/(1+(X/IC50)^^slope) (b) Top: Upward asymptote Slope: Slope parameter IC50: Value X of (Top+Bottom)/2 Bottom: Downward asymptote X: Concentration of test compound
(§5) First, any given initial values are inputted into Top, Slope, IC50, Bottom (Top=100, Slope=−1, IC50=approx. IC50, and Bottom=0), so that a regression curve was drawn. Subsequently, a least-squares method was executed to the sum of squares of a difference between the measured value and the estimated value obtained from formula (b) to calculate the coefficient of the 4-parameter logistic regression equation, so as to calculate IC50.

A further experiment has as its target RET-V804L (Homo sapiens (Human), UniProt P07949, V804L). The experiment can be described thus: Evaluation of RET kinase inhibiting activity (cell system), Ba/F3 cells overexpressing RET (V804L) mutant. The experiment is classed as cell-based. To be noted: Ba/F3, compound 2 hours. Here is the method: as §1
The test system of experiment [2] is phosphorylated RET (ETV-RET) in Ba/F3-RET tumors. The experiment can be described thus: One shot PKPD analysis, Ba/F3-RET tumors. The experiment is classed as in vivo, mice. As to the method: Murine pro-B cells, Ba/F3, expressing fusion protein of ets variant 6 (ETV)-RET and ETV-RET-V804L were constructed by Daiichi Sankyo RD Novare Co., Ltd., and cultivated in RPM11640 medium (Thermo Fisher Scientific K.K.) supplemented with 10% (v/v) heat-inactivated fetal bovine serum (FBS, GE Healthcare) and 1.5 µg/mL puromycin in a CO2 incubator that was set at 37° C. with a 5% CO2 atmosphere. The cells were suspended in DPBS and inoculated subcutaneously into mice at 1.0×10^7 cells per mouse. After the tumor had reached a size of 100 to 200 mm^3, the mice were randomized based on tumor diameter and the test compounds (10 mg/kg, Compound 229 or Example 3) which were dissolved in 1% (w/v) hydroxypropyl methylcellulose solution were administrated orally. Control group was administrated with 1% (w/v) hydroxypropyl methylcellulose solution. […] Protein concentration of tumor lysate was quantified by colorimetric reagent (Thermo Fisher Scientific K.K.) and all were diluted to the same concentration by lysis buffer. […] The chemiluminescence reaction of HRP and the substrate (Pierce ECL Plus Western Blotting Substrate, Cat. No. 32132, Thermo Fisher Scientific K.K.) was detected by an image scanner Typhoon 9400 (GE Healthcare). Signal intensities fo phosphorylated RET (pRET) and RET were quantified and calculated as following methods. […]

The target of experiment [3] is RET-Gatekeeper mutation (V804L) recombinant protein (Homo sapiens (Human), UniProt P07949, V804L). The experiment can be described thus: Evaluation of RET kinase inhibiting activity (cell-free system), gatekeeper mutant. The format is biochemical. As to the method:
as §2, §3, §4, §5

For experiment [4], the system named is non-small cell lung cancer cell line LC-2/ad having a CCDC6-RET fusion gene. The experiment in a line: Cell growth inhibitory activity, non-small cell lung cancer cell line LC-2/ad. The experiment is classed as cell-based. The settings on record: Homo sapiens, 216 h; LC-2/ad cells, 9 days, CellTiter-Glo. Here is the method: The cell growth inhibitory activity of the test compound on the non-small cell lung cancer cell line LC-2/ad having a CCDC6-RET fusion gene (RIKEN, J Thorac Oncol. 2012 December, 7(12), 1872-6) was measured.
LC-2/ad cells were seeded on a 96-well plate at a cell density of 5,000 cells per well, and then cultured at 37° C. in the presence of 5% CO2 overnight in a medium prepared by mixing RPMI-1640 containing 15% FBS and 25 mM HEPES with Ham's F12 Mixture at a mixing ratio of 1:1. Thereafter, the test compound was diluted, and then added to the 96-well plate. As a negative control, dimethyl sulfoxide (hereinafter referred to as DMSO) was added. The obtained mixture was cultured at 37° C. in the presence of 5% CO2 for 9 days, and thereafter, a cell count measuring reagent CellTiter-Glo® Luminescent Cell Viability Assay (Promega, # G7571) was added to the culture, followed by stirring the mixture. Thereafter, using a luminescence measurement device Envision, the luminescence intensity was measured. The measurement value of a well to which only the medium had been added was define as a survival rate of 0%, and the measurement value of a well to which DMSO had been added was defined as a survival rate of 100%. The survival rate of the LC-2/ad cells in the presence of each concentration of the test compound was calculated.
Background: ATP-based viability assays read luminescence as a measure of living cells.

For experiment [5], the system named is thyroid gland cancer cell line TT having RET activating mutation (C634W). The experiment can be described thus: Cell growth inhibitory activity, thyroid gland cancer cell line TT. The experiment is classed as cell-based. To be noted: Homo sapiens, 216 h; TT cells, 9 days, CellTiter-Glo. As to the method: The cell growth inhibitory activity of the test compound on the thyroid gland cancer cell line TT having RET activating mutation (C634W) (Biochemical and Biophysical Research Communications. 1995 Feb. 27 (207), 1022-1028) was measured.
TT cells were seeded on a 96-well plate at a cell density of 5,000 cells per well, and were then cultured at 37° C. in the presence of 5% CO2 overnight in an F-12K nutrient mixture medium containing 10% FBS. Thereafter, the compound was diluted, and then added to the 96-well plate. As a negative control, dimethyl sulfoxide (hereinafter referred to as DMSO) was added. The obtained mixture was cultured at 37° C. in the presence of 5% CO2 for 9 days, and thereafter, a cell count measuring reagent CellTiter-Glo® Luminescent Cell Viability Assay was added to the culture, followed by stirring the mixture. Thereafter, using a luminescence measurement device Envision (Perkin Elmer), the luminescence intensity was measured. The measurement value of a well to which only the medium had been added was define as a survival rate of 0%, and the measurement value of a well to which DMSO had been added was defined as a survival rate of 100%. The survival rate of the TT cells in the presence of each concentration of the test compound was calculated.

The mark [6] stands for this setting: cell-free system, ATP 1 mM, read-out: RET-wild type IC50.
Where [7] appears, read: cell-free system, ATP 1 mM, read-out: RET-V804L IC50.

Like-named read-outs stand apart in the source and are kept apart here.

Chain of RET recombinant protein (RET-wild type) (P07949 29-1114): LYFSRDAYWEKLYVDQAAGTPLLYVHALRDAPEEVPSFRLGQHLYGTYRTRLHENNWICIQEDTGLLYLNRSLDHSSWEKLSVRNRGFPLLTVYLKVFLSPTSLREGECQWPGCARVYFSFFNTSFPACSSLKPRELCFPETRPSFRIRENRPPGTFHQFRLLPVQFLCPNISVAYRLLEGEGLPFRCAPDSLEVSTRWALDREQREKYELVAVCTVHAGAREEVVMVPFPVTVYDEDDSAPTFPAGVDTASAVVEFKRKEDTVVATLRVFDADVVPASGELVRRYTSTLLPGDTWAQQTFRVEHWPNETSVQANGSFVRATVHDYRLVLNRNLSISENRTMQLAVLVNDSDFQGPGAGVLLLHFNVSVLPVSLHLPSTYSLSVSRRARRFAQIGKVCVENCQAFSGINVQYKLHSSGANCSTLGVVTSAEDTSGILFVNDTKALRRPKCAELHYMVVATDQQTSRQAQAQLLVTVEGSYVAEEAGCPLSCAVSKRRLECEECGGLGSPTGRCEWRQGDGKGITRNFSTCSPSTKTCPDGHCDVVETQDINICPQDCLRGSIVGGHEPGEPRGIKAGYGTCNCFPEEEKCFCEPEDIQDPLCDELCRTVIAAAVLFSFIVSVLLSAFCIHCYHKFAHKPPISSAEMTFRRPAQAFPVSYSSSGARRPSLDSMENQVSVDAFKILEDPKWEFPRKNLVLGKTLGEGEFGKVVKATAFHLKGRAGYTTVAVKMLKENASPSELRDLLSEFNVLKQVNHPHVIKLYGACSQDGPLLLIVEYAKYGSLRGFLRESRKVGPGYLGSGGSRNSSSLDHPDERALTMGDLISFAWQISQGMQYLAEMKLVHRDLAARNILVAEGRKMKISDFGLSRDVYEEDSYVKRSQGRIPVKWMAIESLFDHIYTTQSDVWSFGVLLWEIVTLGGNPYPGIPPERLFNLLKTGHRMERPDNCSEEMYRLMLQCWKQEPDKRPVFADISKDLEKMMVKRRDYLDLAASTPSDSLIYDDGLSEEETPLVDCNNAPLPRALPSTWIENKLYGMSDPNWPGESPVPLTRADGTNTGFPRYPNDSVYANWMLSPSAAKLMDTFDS
Chain of RET-Gatekeeper mutation (V804L) recombinant protein (P07949 29-1114 V804L): as the sequence (P07949 29-1114) above, with V776L counted along it
Chain of RET-wild type (P07949 29-1114): as the sequence (P07949 29-1114) above
Chain of RET-V804L (P07949 29-1114 V804L): as the sequence (P07949 29-1114) above, with V776L counted along it

For `COc1cc2cc(-c3ccc(CC(=O)Nc4cc(C(C)(C)C(F)(F)F)no4)cn3)cnc2cc1OC` [Example 3, 2-[6-(6,7-Dimethoxyquinolin-3-yl)pyridin-3-yl]-N-[3-(1,1,1-trifluoro-2-methylpropan-2-yl)-1,2-oxazol-5-yl]acetamide], the concentration for half-maximal inhibition (IC50) (commonly the concentration needed to halve the response being measured) is 4 nM at RET-wild type; 4.6 nM in experiment [1] (setting [6]); 4.6 nM in experiment [1] (non-cell system, read-out: Biochemical assay (non-cell system) IC50 (nM) RET-WT); 15 nM on RET-V804L; 6.3 nM in experiment [3] (setting [7]); 6.3 nM in experiment [3] (non-cell system, read-out: Biochemical assay (non-cell system) IC50 (nM) RET-V804L). Also, the “inhibition of pRET in Ba/F3-RET tumors” value in experiment [2] (10 mg/kg oral) is “clearly inhibited”. The “Relative phosphorylation of RET (%) in Ba/F3-RET tumors” value in experiment [2] (Dose: 10 mg/kg oral, six hours after administration, relative to vehicle) is given as 6%.
Regarding `COc1cc2cc(-c3ccc(CC(=O)Nc4cc(C(C)(C)C(F)(F)F)n[nH]4)cn3)cnc2cc1OC` [Example 5, 2-[6-(6,7-Dimethoxyquinolin-3-yl)pyridin-3-yl]-N-[3-(1,1,1-trifluoro-2-methylpropan-2-yl)-1H-pyrazol-5-yl]acetamide], the concentration for half-maximal inhibition (IC50) on RET-wild type is 10 nM; in experiment [1] (setting [6]), 2.2 nM; against RET-V804L it was 15 nM; in experiment [4], 82 nM; in experiment [5], 17 nM; in experiment [3] (setting [7]), 2.7 nM.
